Data published in the supplement of paper PMC10307832.

Key:
Experiment in all cases: relative viability (nuclei count vs DMSO), 5 days (fraction); higher = more cells survive
Metformin + AZD7762 = compound: CN(C)C(=N)NC(=N)N [Metformin] + NC(=O)Nc1cc(-c2cccc(F)c2)sc1C(=O)N[C@H]1CCCNC1 [AZD7762] (partner 0.2 µM)
How it was run: (§1)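 After 5 days of treatment, lung cancer cells in 1536-well plates were fixed and stained in a single step (final 0.05% Triton X-100, 1% formaldehyde, 1 ug/ml Hoechst) and their nuclei counted on 4× images. Treatment had been applied by pin tool the day after seeding as one drug alone or as a fixed anchor-drug dose with five library-drug doses (not always all listed) in √10 steps. Relative viability is the nuclei count of treated wells divided by that of vehicle wells, and values are medians of duplicate plates.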

Metformin + Foretinib = compound: CN(C)C(=N)NC(=N)N [Metformin] + COc1cc2c(Oc3ccc(NC(=O)C4(C(=O)Nc5ccc(F)cc5)CC4)cc3F)ccnc2cc1OCCCN1CCOCC1 [Foretinib] (partner 0.25 µM)
How it was run: as §1

Metformin + Decitabine = compound: CN(C)C(=N)NC(=N)N [Metformin] + Nc1ncn([C@H]2C[C@H](O)[C@@H](CO)O2)c(=O)n1 [Decitabine] (partner 2 µM)
How it was run: as §1

Metformin + OSI-027 = compound: CN(C)C(=N)NC(=N)N [Metformin] + COc1cccc2cc(-c3nc([C@H]4CC[C@H](C(=O)O)CC4)n4ncnc(N)c34)[nH]c12 [OSI-027] (partner 0.5 µM)
How it was run: as §1

## NCI-H460
Metformin + AZD7762; first compound 31.62 µM
  relative viability: 0.632
Metformin + AZD7762; first compound 100 µM
  relative viability: 0.676
Metformin + AZD7762; first compound 316.23 µM
  relative viability: 0.433
Metformin + AZD7762; first compound 1000 µM
  relative viability: 0.553
Metformin + Foretinib; first compound 10 µM
  relative viability: 0.949
Metformin + Foretinib; first compound 31.62 µM
  relative viability: 0.998
Metformin + Foretinib; first compound 100 µM
  relative viability: 0.961
Metformin + Foretinib; first compound 316.23 µM
  relative viability: 1.02
Metformin + Foretinib; first compound 1000 µM
  relative viability: 1.03
Metformin + Decitabine; first compound 31.62 µM
  relative viability: 0.444
Metformin + Decitabine; first compound 100 µM
  relative viability: 0.493
Metformin + Decitabine; first compound 316.23 µM
  relative viability: 0.412
Metformin + Decitabine; first compound 1000 µM
  relative viability: 0.469
Metformin + OSI-027; first compound 10 µM
  relative viability: 0.685
Metformin + OSI-027; first compound 31.62 µM
  relative viability: 0.664
Metformin + OSI-027; first compound 100 µM
  relative viability: 0.547
Metformin + OSI-027; first compound 316.23 µM
  relative viability: 0.49
Metformin + OSI-027; first compound 1000 µM
  relative viability: 0.762
